The text below walks through data of patent US20240246960A1 (adMare Therapeutics Society, priority 2021, published 2024).

Each structure is given as a SMILES string. pEC50, pIC50: −log10 of the molar value. Where two headings read alike, the source gives them in different places.

In assay [1] the target is T1, pDNA-PK ser2056 induction in HCT116 spheroids (Homo sapiens, UniProt P78527).
T1 construct: endogenous in cells; host or cells: HCT116 multicellular tumour spheroids
Description: Multicellular tumour spheroid + radiation, pDNA-PK inhibition, HCT116. It is filed as cell-based. As to conditions: 20 Gy. The essentials: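 HCT116 spheroids (~0.5 mm) in MEM/10% FBS/10 mM glucose, 20% O2, 37 °C, pre-incubated 1 h with compound (10 or 5 μM down to 3.5 nM), irradiated 20 Gy, incubated 2 h more. Cryosections immunostained for pDNA-PK ser2056; EC50 (μM) for 50% reduction of radiation-induced pDNA-PK.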

Assay [2] concerns the target T2, DNA-PK phosphorylation at Serine 2056 (Homo sapiens, UniProt P78527).
T2 construct: host or cells: FaDu
Description: Cellular Assay for Inhibition of DNA-PK Phosphorylation at Serine 2056 (FaDu cells, neocarzinostatin, sandwich ELISA). It is filed as cell-based. Particulars: Table 1. Summed up:
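FaDu cells were pretreated with compound (0.3% DMSO) for 1 h, then exposed to neocarzinostatin at 1 μg/mL final for 2 h to induce DSBs. Protein-normalized lysates were assayed by MSD sandwich ELISA for total and pSer2056 DNA-PK. IC50 came from variable-slope fits of % inhibition relative to DMSO and NCS controls.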
On the technique in general: An ELISA detects its analyte on a solid surface through an enzyme-linked reagent.

[3] abbreviates: Example 7, spheroid, cell line HCT115 [sic], 20% O2, read-out: EC50 (pDNA-PK inhibition, immunohistochemical endpoint).
Setting [4] is: Example 8, spheroid, read-out: Cell line: HCT116 Immunohistochemical endpoint pDNA-PK inhibition EC50.
[5] abbreviates: Example 9 Study 2, 20% O2, read-out: Spheroid Cell line: HCT116 Immunohistochemical endpoint pDNA-PK inhibition EC50.

For the molecule `Fc1cn([C@H]2CC[C@@H](Oc3nc(N4CCOCC4)cc4ncccc34)CC2)cn1` [Compound 17a, 4-(5-(((1s,4s)-4-(4-fluoro-1H-imidazol-1-yl)cyclohexyl)oxy)-1,6-naphthyridin-7-yl)morpholine], the pEC50 in assay [1] (setting [3]), in assay [1] (setting [4]) and in assay [1] (setting [5]) was 5.00 to 6.00 in each case. Further, the pIC50 – broadly, −log10 of the IC50, conventionally taken in molar units – in assay [2] is more than 7.00.

On to `Cc1cnc(N[C@H]2CC[C@@H](Oc3nc(N4CCOCC4)cc4ncccc34)CC2)nc1` [Compound 32, 5-Methyl-N-((1s,4s)-4-((7-morpholino-1,6-naphthyridin-5-yl)oxy)cyclohexyl)pyrimidin-2-amine], for which the pEC50 in assay [1] (setting [3]), in assay [1] (setting [4]) and in assay [1] (setting [5]) was 5.00 to 6.00 throughout. The molecule also gave a pIC50 in assay [2] of 6.00 to 7.00.

Consider `c1cnc2cc(N3CCOCC3)nc(O[C@H]3CC[C@@H](Nc4ncnc5ccsc45)CC3)c2c1` [Compound 83, N-((1s,4s)-4-((7-morpholino-1,6-naphthyridin-5-yl)oxy)cyclohexyl)thieno[3,2-d]pyrimidin-4-amine], for which the pEC50 in assay [1] (setting [3]) and in assay [1] (setting [5]) was 6.30 to 8.00 each time. In addition, in assay [2], the pIC50 was more than 7.00.

With `NS(=O)(=O)c1cnc(N[C@H]2CC[C@@H](Oc3nc(N4CCOCC4)cc4ncccc34)CC2)nc1` [Compound 46, 2-(((1s,4s)-4-((7-morpholino-1,6-naphthyridin-5-yl)oxy)cyclohexyl)amino)pyrimidine-5-sulfonamide], the pEC50 in assay [1] (setting [3]) and in assay [1] (setting [5]) was 6.00 to 6.30 each time. This molecule also showed a pIC50 in assay [2] of 5.00 to 6.00.

As for `c1cnc2cc(N3CCOCC3)nc(O[C@H]3CC[C@@H](Nc4ccn5nccc5n4)CC3)c2c1` [Compound 89, N-((1s,4s)-4-((7-Morpholino-1,6-naphthyridin-5-yl)oxy)cyclohexyl)pyrazolo[1,5-a]pyrimidin-5-amine], the pEC50 in assay [1] (setting [3]) and in assay [1] (setting [5]) was 6.00 to 6.30 in each case. The pIC50 in assay [2] is 6.00 to 7.00.

Regarding `O=C(N[C@H]1CC[C@@H](Oc2nc(N3CCOCC3)cc3ncccc23)CC1)c1c[nH]cn1` [Compound 144, N-((1s,4s)-4-((7-morpholino-1,6-naphthyridin-5-yl)oxy)cyclohexyl)-1H-imidazole-4-carboxamide], the pEC50 in assay [1] (setting [3]) and in assay [1] (setting [5]) was 5.00 to 6.00 each time. Also, the pIC50 in assay [2] was more than 7.00.

Regarding `CS(=O)(=O)Nc1cnc2cc(N3CCOCC3)nc(O[C@H]3CC[C@@H](n4ccnc4)CC3)c2c1` [Compound 161, N-(5-(((1s,4s)-4-(1H-imidazol-1-yl)cyclohexyl)oxy)-7-morpholino-1,6-naphthyridin-3-yl)methanesulfonamide], the pEC50 in assay [1] (setting [3]), in assay [1] (setting [4]) and in assay [1] (setting [5]) was 5.00 to 6.00 throughout. The same molecule gave a pIC50 in assay [2] of 6.00 to 7.00.

On to `c1cnc2cc(N3CCOCC3)nc(O[C@H]3CC[C@@H](Nc4ncc5[nH]ccc5n4)CC3)c2c1` [Compound 85, N-((1s,4s)-4-((7-Morpholino-1,6-naphthyridin-5-yl)oxy)cyclohexyl)-5H-pyrrolo[3,2-d]pyrimidin-2-amine], for which the pEC50 in assay [1] (setting [3]) and in assay [1] (setting [5]) was 6.30 to 8.00 throughout. In addition, the pIC50 in assay [2] was more than 7.00.

Regarding `O=C(N[C@H]1CC[C@@H](Oc2nc(N3CCOCC3)cc3ncccc23)CC1)c1cncnc1` [Compound 122, N-((1s,4s)-4-((7-Morpholino-1,6-naphthyridin-5-yl)oxy)cyclohexyl)pyrimidine-5-carboxamide], the negative-log EC50 (pEC50) in assay [1] (setting [3]), in assay [1] (setting [4]) and in assay [1] (setting [5]) was 5.00 to 6.00 throughout. This molecule showed a pIC50 in assay [2] of 6.00 to 7.00.

For the molecule `CS(=O)(=O)Nc1cnc2cc(N3CCOCC3)nc(O[C@H]3CC[C@@H](NC(=O)c4ncco4)CC3)c2c1` [Compound 205, N-((1s,4s)-4-((3-(methylsulfonamido)-7-morpholino-1,6-naphthyridin-5-yl)oxy)cyclohexyl)oxazole-2-carboxamide], the pEC50 in assay [1] (setting [3]) and in assay [1] (setting [5]) was 5.00 to 6.00 each time. In assay [2], this molecule had a pIC50 of more than 7.00.

As for `CS(=O)(=O)Nc1cnc(N[C@H]2CC[C@@H](Oc3nc(N4CCOCC4)cc4ncccc34)CC2)nc1` [Compound 44, N-(2-(((1s,4s)-4-((7-morpholino-1,6-naphthyridin-5-yl)oxy)cyclohexyl)amino)pyrimidin-5-yl)methanesulfonamide], the negative-log EC50 (pEC50) in assay [1] (setting [3]) and in assay [1] (setting [5]) was 6.00 to 6.30 each time. This molecule also gave a pIC50 in assay [2] of more than 7.00.

In the case of `Nc1cnc(N[C@H]2CC[C@@H](Oc3nc(N4CCOCC4)cc4ncccc34)CC2)nc1` [Compound 43, N2-((1s,4s)-4-((7-morpholino-1,6-naphthyridin-5-yl)oxy)cyclohexyl)pyrimidine-2,5-diamine], the pEC50 in assay [1] (setting [3]) and in assay [1] (setting [5]) was 6.30 to 8.00 in each case. In assay [2], the negative logarithm of the IC50 (pIC50) is more than 7.00.

For the molecule `O=C(N[C@H]1CC[C@@H](Oc2nc(N3CCOCC3)cc3ncccc23)CC1)c1nccs1` [Compound 135, N-((1s,4s)-4-((7-morpholino-1,6-naphthyridin-5-yl)oxy)cyclohexyl)thiazole-2-carboxamide], the pEC50 in assay [1] (setting [3]) and in assay [1] (setting [5]) was 5.00 to 6.00 throughout. This molecule also gave a negative logarithm of the IC50 (pIC50) in assay [2] of 6.00 to 7.00.

Regarding `CS(=O)(=O)Nc1cnc2cc(N3CCOCC3)nc(O[C@H]3CC[C@@H](Nc4ncccn4)CC3)c2c1` [Compound 185, N-(7-morpholino-5-(((1s,4s)-4-(pyrimidin-2-ylamino)cyclohexyl)oxy)-1,6-naphthyridin-3-yl)methanesulfonamide], the pEC50 in assay [1] (setting [3]) and in assay [1] (setting [5]) was 6.30 to 8.00 throughout. This molecule also had a negative-log IC50 (pIC50) in assay [2] of more than 7.00.

For `Oc1cnc2cc(N3CCOCC3)nc(O[C@H]3CC[C@@H](Nc4ncccn4)CC3)c2c1` [Compound 19a, 7-Morpholino-5-(((1s,4s)-4-(pyrimidin-2-ylamino)cyclohexyl)oxy)-1,6-naphthyridin-3-ol], the pEC50 in assay [1] (setting [3]), in assay [1] (setting [4]) and in assay [1] (setting [5]) was 6.00 to 6.30 each time. This molecule gave a negative-log IC50 (pIC50) in assay [2] of more than 7.00.

Turning to `O=C(N[C@H]1CC[C@@H](Oc2nc(N3CCOCC3)cc3ncccc23)CC1)c1ncccn1` [Compound 123, N-((1s,4s)-4-((7-Morpholino-1,6-naphthyridin-5-yl)oxy)cyclohexyl)pyrimidine-2-carboxamide], the pEC50 in assay [1] (setting [3]), in assay [1] (setting [4]) and in assay [1] (setting [5]) was 6.00 to 6.30 each time. In addition, the pIC50 in assay [2] was 6.00 to 7.00.

In the case of `Cn1cnc(N[C@H]2CC[C@@H](Oc3nc(N4CCOCC4)cc4ncccc34)CC2)n1` [Compound 31, 1-methyl-N-((1s,4s)-4-((7-morpholino-1,6-naphthyridin-5-yl)oxy)cyclohexyl)-1H-1,2,4-triazol-3-amine], the pEC50 in assay [1] (setting [3]) and in assay [1] (setting [5]) was 5.00 to 6.00 in each case. Also, the negative-log IC50 (pIC50) in assay [2] was 6.00 to 7.00.

`Cn1ccc2nc(N[C@H]3CC[C@@H](Oc4nc(N5CCOCC5)cc5ncccc45)CC3)ncc21` [Compound 87, 5-Methyl-N-((1s,4s)-4-((7-morpholino-1,6-naphthyridin-5-yl)oxy)cyclohexyl)-5H-pyrrolo[3,2-d]pyrimidin-2-amine]: the pEC50 in assay [1] (setting [3]) and in assay [1] (setting [5]) was 6.30 to 8.00 in each case. Further, in assay [2], the negative logarithm of the IC50 (pIC50) is more than 7.00.

In the case of `c1cnc2cc(N3CCOCC3)nc(O[C@H]3CC[C@@H](Nc4ncnc5occc45)CC3)c2c1` [Compound 82, N-((1s,4s)-4-((7-morpholino-1,6-naphthyridin-5-yl)oxy)cyclohexyl)furo[2,3-d]pyrimidin-4-amine], the pEC50 in assay [1] (setting [3]) and in assay [1] (setting [5]) was 6.30 to 8.00 each time. In addition, the pIC50 in assay [2] was more than 7.00.
